Assay results as given in US20050112573A1, “Method of detecting toxic substance” (priority 2001, published 2005).

System: yeast genes (level of expressed mRNA)
Test: DNA chip analysis of expressed mRNA of yeast genes after 2 h culture with a toxic chemical substance
Format: cell-based, Saccharomyces cerevisiae S288C
Conditions: for The level of expressed mRNA in the presence of chemical substance/ (ratio to absence of chemical substance): stress protein genes, DNA chip
Method: Yeast (Saccharomyces cerevtisiae S288C (α SUC2mal mel gap2 CUP1)) were cultured at 25° C. on YPD medium (yeast extract 1%, polypepton 2%, glucose 2%). One of toxic chemical substances was added to the cell at logarithmic growth phase, and the cell was further cultured for two hours. Cell was cultured without any chemical substance in the same condition, and was used as control. Concentrations of the chemical substances were defined to inhibit the growth of the yeast but not lead to death.
After the completion of cultivation, the culture was centrifuged to collect the cells. To the cells, sodium acetate buffer (50 mM sodium acetate, 10 mM EDTA, 1% SDS) was added, and the mixture was shaken at 65° C. for five minutes, followed by returning to room temperature, and obtaining the supernatant, which procedure was repeated two times. To the supernatant, ½ amount of a solution of phenol/chloroform was added, and the mixture was centrifuged to give a supernatant, which was added with an equal amount of chloroform, and the mixture was centrifuged to give a supernatant. To the supernatant, an equal amount of isopropanol containing 0.3 M sodium acetate was added, and the mixture was allowed to stand at room temperature for 30 minutes, after which the mixture was centrifuged to give a sediment of the whole RNAs. Seventy % ethanol was added to the sediment, and the mixture was again centrifuged to give a sediment, which was then dried and dissolved in water. mRNA was isolated from the whole RNAs as followings. In view of the fact that a poly A chain is attached to the 3′ terminus of mRNA, a polynucleotide having a poly T structure which was immobilized on the surface of latex beads was used to trap the mRNA, and then the mRNA was washed and eluted with spine column (Oligotex-dT30<Super>mRNA Purification Kit, Takara). Reverse transcription of the mRNA was conducted with a reverse transcriptase (Super Script II Reverse Transcriptase; catalogue No. 18064-014, GibcoBRL) using fluorescence-labeled nucleotides to give cDNAs that were introduced with Cy3-dUTP or Cy5-dUTP during the reverse transcription.
The labeled cDNAs were dissolved in TE buffer (10 mM Tris-HCl/1 mM EDTA, pH8.0), and the solution was dropped on the DNA chip containing the whole genes of yeast (DNA Chip Research Inc. Japan) so that the cDNAs were hybridized on the DNA chip at 65° C. for over 12 hours. The fluoresces intensity of the DNA chip was read with a scanner, and the ratio relative to the fluorescence intensity resulting from the absence of chemical substance was estimated as the following, which is shown in Tables 1 to 9: [formula]
In the Tables, “Intensity” indicated in the rightmost column is a value of the level of expressed mRNA of each gene in control cells as divided by the average level of the expressions of the whole genes.

CCCCCCCCCCCCOS(=O)(=O)[O-].[Na+] [(18), sodium lauryl sulfate]
The level of expressed mRNA in the presence of chemical substance/absence: YOR267C (gene YOR267C): 1.0
The level of expressed mRNA in the presence of chemical substance/absence: YOR325W (gene YOR325W): 1.0
level of expressed mRNA in the presence of chemical substance/in its absence (gene YOR336W): 1.0
level of expressed mRNA in the presence of chemical substance/in its absence (gene YOR344C): 1.3
level of expressed mRNA in the presence of chemical substance/in its absence (gene YOR347C): 1.3
The level of expressed mRNA in the presence of chemical substance/absence: YPL005W (gene YPL005W): 1.1
level of expressed mRNA in the presence of chemical substance/in its absence (gene YPL017C): 0.8
The level of expressed mRNA in the presence of chemical substance / the level in the absence of chemical substance, yeast gene YPL107W (gene YPL107W, DNA chip fluorescence ratio to control without chemical, 2 hours culture with chemical, growth-inhibiting non-lethal concentration): 1.1
The level of expressed mRNA in the presence of chemical substance / the level in the absence of chemical substance, yeast gene YPL138C (gene YPL138C, DNA chip fluorescence ratio to control without chemical, 2 hours culture with chemical, growth-inhibiting non-lethal concentration): 1.1
The level of expressed mRNA in the presence of chemical substance/absence: YPL150W (gene YPL150W): 1.1
The level of expressed mRNA in the presence of chemical substance/absence: YPL151C (gene YPL151C): 1.0
The level of expressed mRNA in the presence of chemical substance/absence: YPL152W (gene YPL152W): 1.9
The level of expressed mRNA in the presence of chemical substance/absence: YPL168W (gene YPL168W): 1.2
The level of expressed mRNA in the presence of chemical substance/absence: YPL180W (gene YPL180W): 0.9
The level of expressed mRNA in the presence of chemical substance/absence: YPL188W (gene YPL188W): 0.9
The level of expressed mRNA in the presence of chemical substance/absence: YPL221W (gene YPL221W): 1.2
The level of expressed mRNA in the presence of chemical substance/absence: YPL225W (gene YPL225W): 1.7
The level of expressed mRNA in the presence of chemical substance/absence: YPL249C (gene YPL249C): 1.2
The level of expressed mRNA in the presence of chemical substance/absence: YPL260W (gene YPL260W): 1.3
level of expressed mRNA in the presence of chemical substance/in its absence (gene YPL265W): 0.4
level of expressed mRNA in the presence of chemical substance/in its absence (gene YPR006C): 2.1
level of expressed mRNA in the presence of chemical substance/in its absence (gene YPR026W): 1.3
The level of expressed mRNA in the presence of chemical substance/absence: YPR049C (gene YPR049C): 1.1
The level of expressed mRNA in the presence of chemical substance/absence: YPR061C (gene YPR061C): 0.9
The level of expressed mRNA in the presence of chemical substance/absence: YPR093C (gene YPR093C): 1.1
The level of expressed mRNA in the presence of chemical substance/absence: YPR146C (gene YPR146C): 1.1
The level of expressed mRNA in the presence of chemical substance/absence: YPR148C (gene YPR148C): 2.0
The level of expressed mRNA in the presence of chemical substance/absence: YPR150W (gene YPR150W): 1.0
The level of expressed mRNA in the presence of chemical substance/absence: YPR158W (gene YPR158W): 0.7
The level of expressed mRNA in the presence of chemical substance/absence: YPR169W (gene YPR169W): 1.1
The level of expressed mRNA in the presence of chemical substance/absence: YPR172W (gene YPR172W): 1.4
The level of expressed mRNA in the presence of chemical substance/absence: YPR174C (gene YPR174C): 0.9
The level of expressed mRNA in the presence of chemical substance/The level of expressed mRNA in the absence of chemical substance (yeast gene YAR010C): 1.0
The level of expressed mRNA in the presence of chemical substance/The level of expressed mRNA in the absence of chemical substance (yeast gene YBL005W-A): 1.0
The level of expressed mRNA in the presence of chemical substance/ (ratio to absence), gene YBL038W (yeast gene YBL038W, mitochondria-located protein genes, 2 h culture with chemical): 1.9
The level of expressed mRNA in the presence of chemical substance/The level of expressed mRNA in the absence of chemical substance (yeast gene YBL041W): 2.0
The level of expressed mRNA in the presence of chemical substance/The level of expressed mRNA in the absence of chemical substance (yeast gene YBL043W): 1.8
The level of expressed mRNA in the presence of chemical substance/The level of expressed mRNA in the absence of chemical substance (yeast gene YBL078C): 2.8
The level of expressed mRNA in the presence of chemical substance/ (ratio to absence of chemical substance) (yeast gene YBL093C): 1.3
The level of expressed mRNA in the presence of chemical substance/ (in its absence), gene YBR036C (yeast gene YBR036C, ratio of DNA chip fluorescence intensity to that without chemical substance): 1.8
The level of expressed mRNA in the presence of chemical substance/ (ratio to absence of chemical substance) (yeast gene YBR044C): 1.3
The level of expressed mRNA in the presence of chemical substance/ (ratio to absence), gene YBR122C (yeast gene YBR122C, mitochondria-located protein genes, 2 h culture with chemical): 1.5
The level of expressed mRNA in the presence of chemical substance/The level of expressed mRNA in the absence of chemical substance (yeast gene YBR214W): 1.2
The level of expressed mRNA in the presence of chemical substance/ (ratio to absence), gene YBR251W (yeast gene YBR251W, mitochondria-located protein genes, 2 h culture with chemical): 1.4
The level of expressed mRNA in the presence of chemical substance/ (in its absence), gene YBR298C (yeast gene YBR298C, ratio of DNA chip fluorescence intensity to that without chemical substance): 0.8
The level of expressed mRNA in the presence of chemical substance/The level of expressed mRNA in the absence of chemical substance (yeast gene YCL020W): 1.3
The level of expressed mRNA in the presence of chemical substance/The level of expressed mRNA in the absence of chemical substance (yeast gene YCL027W): 0.8
The level of expressed mRNA in the presence of chemical substance/The level of expressed mRNA in the absence of chemical substance (yeast gene YCR004C): 3.5
The level of expressed mRNA in the presence of chemical substance/ (ratio to absence), gene YCR046C (yeast gene YCR046C, mitochondria-located protein genes, 2 h culture with chemical): 1.0
The level of expressed mRNA in the presence of chemical substance/The level of expressed mRNA in the absence of chemical substance (yeast gene YCR071C): 1.3
The level of expressed mRNA in the presence of chemical substance/ (ratio to absence), gene YCR083W (yeast gene YCR083W, mitochondria-located protein genes, 2 h culture with chemical): 1.3
The level of expressed mRNA in the presence of chemical substance/ (ratio to absence of chemical substance) (yeast gene YCR083W): 1.3
The level of expressed mRNA in the presence of chemical substance/The level of expressed mRNA in the absence of chemical substance (yeast gene YCR088W): 0.9
The level of expressed mRNA in the presence of chemical substance/The level of expressed mRNA in the absence of chemical substance (yeast gene YDL008W): 1.6
The level of expressed mRNA in the presence of chemical substance/ in its absence, gene YDL067C (yeast gene YDL067C, energy system protein genes, 2 h culture with the chemical, ratio to control without chemical): 1.7
The level of expressed mRNA in the presence of chemical substance/ (ratio to absence), gene YDL067C (yeast gene YDL067C, mitochondria-located protein genes, 2 h culture with chemical): 1.7
The level of expressed mRNA in the presence of chemical substance/ in its absence, gene YDL078C (yeast gene YDL078C, energy system protein genes, 2 h culture with the chemical, ratio to control without chemical): 2.0
